{"source": "patent US5904929A", "about": "“Acylated cyclodextrin-containing pharmaceutical composition” (Janssen Pharmaceutica, N.V., priority 1997, dated 1999)", "key": {"[1]": {"settings": "J. Pharm. Pharmacol. 1994, 46: 714-717; cited from earlier work"}, "[2]": {"assay": "Detaching force of films, probe tack tester (Example 1)", "type": "physicochemical", "settings": "films on polyethylene terephthalate; compared with HPC, HPMC and PHEMA; probe tack tester (FIG. 1)", "description": "Pervaleryl-β-cyclodextrin (TV-β-CyD)-containing absolute ethanol solution (concentration: 150 mg/ml) was added dropwise onto a backing membrane (polyethylene terephthalate film) using a microsyringe, and allowed to stand at 25° C. for 24 hours to evaporate ethanol, whereby films of TV-β-CyD having adhesion were obtained.\nThe detaching force on the films of TV-β-CyD and on the films derived from various hydrophilic macromolecules (hydroxypropylcellulose (HPC), hydroxypropyl methylcellulose (HPMC) and polyhydroxyethyl methacrylate (PHEMA)) was measured using a probe tack tester (produced by Rigaku Kogyo Co.). The films of hydrophilic macromolecules were prepared as described with respect to TV-β-CyD."}, "[3]": {"test_system": "cutis of the back of female hairless mice", "assay": "Cutis irritativeness, histology of back skin of hairless mice (Example 2)", "type": "in vivo", "settings": "16 hours, light microscopy", "description": "There was stuck 150 mg of TV-β-CyD, in the shape of a circle with a diameter of […], on the back of female hairless mice at the age of around 7 weeks (weight: […]), and 16 hours later, the cutis was extirpated. The extirpated cutis was fixed with 20% neutrally-buffered formalin solution and embedded in paraffin according to a usual manner, and tissue sections were prepared using a microtome. These sections were double stained with haematoxylin and Eosine, and observed by a light microscope. Untreated cutis was used as control. Moreover, a commercially available adhesive tape for patch test was applied on the same mice under the same condition, and, thereafter, the cutis tissue of the applied portion was extirpated for comparison."}}}
{"smiles": "CCCC(=O)OC[C@H]1O[C@@H]2O[C@H]3[C@H](OC(=O)CCC)[C@@H](OC(=O)CCC)[C@@H](O[C@H]4[C@H](OC(=O)CCC)[C@@H](OC(=O)CCC)[C@@H](O[C@H]5[C@H](OC(=O)CCC)[C@@H](OC(=O)CCC)[C@@H](O[C@H]6[C@H](OC(=O)CCC)[C@@H](OC(=O)CCC)[C@@H](O[C@H]7[C@H](OC(=O)CCC)[C@@H](OC(=O)CCC)[C@@H](O[C@H]8[C@H](OC(=O)CCC)[C@@H](OC(=O)CCC)[C@@H](O[C@H]1[C@H](OC(=O)CCC)[C@H]2OC(=O)CCC)O[C@@H]8COC(=O)CCC)O[C@@H]7COC(=O)CCC)O[C@@H]6COC(=O)CCC)O[C@@H]5COC(=O)CCC)O[C@@H]4COC(=O)CCC)O[C@@H]3COC(=O)CCC", "note": "[TB-β-CyD, perbutanoyl-β-cyclodextrin]", "values": [{"measurement": "drug release rate, compared with other acylated β-CyDs", "setting": "[1]", "result": "remarkably retards the drug release rate"}]}
{"smiles": "CCCCC(=O)OC[C@H]1O[C@@H]2O[C@H]3[C@H](OC(=O)CCCC)[C@@H](OC(=O)CCCC)[C@@H](O[C@H]4[C@H](OC(=O)CCCC)[C@@H](OC(=O)CCCC)[C@@H](O[C@H]5[C@H](OC(=O)CCCC)[C@@H](OC(=O)CCCC)[C@@H](O[C@H]6[C@H](OC(=O)CCCC)[C@@H](OC(=O)CCCC)[C@@H](O[C@H]7[C@H](OC(=O)CCCC)[C@@H](OC(=O)CCCC)[C@@H](O[C@H]8[C@H](OC(=O)CCCC)[C@@H](OC(=O)CCCC)[C@@H](O[C@H]1[C@H](OC(=O)CCCC)[C@H]2OC(=O)CCCC)O[C@@H]8COC(=O)CCCC)O[C@@H]7COC(=O)CCCC)O[C@@H]6COC(=O)CCCC)O[C@@H]5COC(=O)CCCC)O[C@@H]4COC(=O)CCCC)O[C@@H]3COC(=O)CCCC", "note": "[TV-β-CyD, Pervaleryl-β-cyclodextrin]", "values": [{"measurement": "adhesion (detaching force), in comparison with hydrophilic macromolecules", "setting": "[2]", "result": "strongest in adhesion"}, {"measurement": "peeling of corneum", "setting": "[3]; 150 mg, compared with commercially available adhesive tape for patch test", "result": "peeling of corneum in the same degree as in the case of the commercially available adhesive tape"}, {"measurement": "abnormality such as inflammatory cellular infiltration", "setting": "[3]; other sites (control)", "result": "no abnormality such as inflammatory cellular infiltration"}]}
